Laboratory results: US10882859B2, “Kinase inhibitors” (Topivert Pharma Limited, priority 2015, dated 2021)
Values after ≈ are worked out from the molar mass of the structure shown. Like-named read-outs stand apart in the source and are kept apart here.

Assays:
JAK3 = JAK3 (Homo sapiens (Human), UniProt P52333); test: KINOMEscan enzyme binding assay (DiscoveRx), JAK3; details: read-out: Dissociation Constant JAK3
Experimental: (§1) These assays may be conducted by DiscoveRx (formerly Ambit; San Diego, Calif.). The percentage inhibition produced by incubation with a test compound may be calculated relative to the non-inhibited control.

TYK2 = TYK2 (Homo sapiens (Human), UniProt P29597); test: KINOMEscan enzyme binding assay (DiscoveRx), TYK2; details: read-out: Dissociation Constant TYK2
Chain of TYK2 (P29597 whole entry): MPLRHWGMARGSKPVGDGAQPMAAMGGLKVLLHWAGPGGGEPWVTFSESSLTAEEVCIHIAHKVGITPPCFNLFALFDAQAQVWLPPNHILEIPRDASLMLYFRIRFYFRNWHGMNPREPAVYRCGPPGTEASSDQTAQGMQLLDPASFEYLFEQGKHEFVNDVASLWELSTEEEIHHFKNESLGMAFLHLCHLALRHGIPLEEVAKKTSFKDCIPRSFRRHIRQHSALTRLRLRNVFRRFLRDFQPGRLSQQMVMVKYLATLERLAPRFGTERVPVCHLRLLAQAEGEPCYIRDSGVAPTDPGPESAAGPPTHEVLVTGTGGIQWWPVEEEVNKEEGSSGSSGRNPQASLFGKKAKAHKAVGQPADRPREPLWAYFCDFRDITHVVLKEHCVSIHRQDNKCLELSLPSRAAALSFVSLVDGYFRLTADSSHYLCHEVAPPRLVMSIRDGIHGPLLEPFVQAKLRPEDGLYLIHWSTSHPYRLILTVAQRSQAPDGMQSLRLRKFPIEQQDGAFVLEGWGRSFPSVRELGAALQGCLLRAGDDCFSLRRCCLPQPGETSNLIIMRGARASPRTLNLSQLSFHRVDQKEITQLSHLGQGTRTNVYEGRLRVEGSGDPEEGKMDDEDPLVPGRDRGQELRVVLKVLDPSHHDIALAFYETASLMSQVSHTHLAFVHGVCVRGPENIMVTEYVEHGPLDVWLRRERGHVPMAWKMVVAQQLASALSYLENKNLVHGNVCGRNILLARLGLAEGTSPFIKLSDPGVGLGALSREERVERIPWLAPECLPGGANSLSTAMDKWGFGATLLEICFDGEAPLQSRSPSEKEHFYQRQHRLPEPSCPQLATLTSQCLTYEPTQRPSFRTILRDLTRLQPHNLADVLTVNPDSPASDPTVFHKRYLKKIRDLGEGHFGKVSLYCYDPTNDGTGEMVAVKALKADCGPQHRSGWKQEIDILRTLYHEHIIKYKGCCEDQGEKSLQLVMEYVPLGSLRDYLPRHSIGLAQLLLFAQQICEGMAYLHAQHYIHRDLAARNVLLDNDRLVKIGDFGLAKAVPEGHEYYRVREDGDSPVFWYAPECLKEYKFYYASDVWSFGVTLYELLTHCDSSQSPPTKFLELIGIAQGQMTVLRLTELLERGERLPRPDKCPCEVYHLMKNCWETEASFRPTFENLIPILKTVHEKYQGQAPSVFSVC
Experimental: as §1

JAK2 = JAK2 (Homo sapiens (Human), UniProt O60674); test: KINOMEscan enzyme binding assay (DiscoveRx), JAK2; details: read-out: Dissociation Constant JAK2
Chain of JAK2 (O60674 whole entry): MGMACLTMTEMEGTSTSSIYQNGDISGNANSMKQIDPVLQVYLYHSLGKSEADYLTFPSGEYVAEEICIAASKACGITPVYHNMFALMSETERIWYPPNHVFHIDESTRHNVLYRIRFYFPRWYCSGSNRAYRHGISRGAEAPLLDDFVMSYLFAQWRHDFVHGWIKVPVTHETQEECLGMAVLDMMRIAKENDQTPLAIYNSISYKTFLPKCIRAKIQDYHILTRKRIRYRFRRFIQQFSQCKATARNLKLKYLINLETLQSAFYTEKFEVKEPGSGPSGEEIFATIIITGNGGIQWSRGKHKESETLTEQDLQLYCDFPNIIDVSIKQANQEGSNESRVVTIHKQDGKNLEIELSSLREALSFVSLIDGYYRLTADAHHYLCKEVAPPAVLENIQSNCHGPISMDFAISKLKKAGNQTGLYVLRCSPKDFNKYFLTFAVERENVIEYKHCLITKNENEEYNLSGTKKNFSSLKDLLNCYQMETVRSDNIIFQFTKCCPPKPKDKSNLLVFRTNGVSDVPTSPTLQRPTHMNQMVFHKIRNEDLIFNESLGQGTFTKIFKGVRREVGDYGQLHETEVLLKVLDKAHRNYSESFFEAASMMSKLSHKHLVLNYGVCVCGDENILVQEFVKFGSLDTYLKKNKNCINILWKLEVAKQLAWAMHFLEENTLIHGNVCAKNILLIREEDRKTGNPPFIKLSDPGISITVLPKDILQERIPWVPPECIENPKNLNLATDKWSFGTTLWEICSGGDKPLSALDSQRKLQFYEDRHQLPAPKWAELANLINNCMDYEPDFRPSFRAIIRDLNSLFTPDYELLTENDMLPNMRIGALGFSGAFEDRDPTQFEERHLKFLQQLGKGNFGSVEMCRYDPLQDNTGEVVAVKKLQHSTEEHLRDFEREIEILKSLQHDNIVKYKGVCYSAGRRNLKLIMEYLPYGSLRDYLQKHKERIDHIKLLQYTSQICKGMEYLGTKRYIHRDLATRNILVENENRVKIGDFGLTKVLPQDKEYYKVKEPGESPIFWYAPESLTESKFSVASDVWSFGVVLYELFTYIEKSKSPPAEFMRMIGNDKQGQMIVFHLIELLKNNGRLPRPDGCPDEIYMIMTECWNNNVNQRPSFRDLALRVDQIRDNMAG
Experimental: as §1

[1] = system: CD3/IL2 stimulated PBMC cells; test: IFNγ release from CD3/IL2 stimulated PBMC cells; assay type: cell-based; details: Homo sapiens, CD3/IL2 stimulation, 48 h, ELISA
Experimental: PBMCs from healthy subjects are separated from whole blood using a density gradient (Lymphoprep, Axis-Shield Healthcare). Cells are added to a 96 well plate, and compound at the desired concentration added 2 hours prior to stimulation with a mixture of monoclonal antibody to CD3 (1 μg/ml, eBioscience) and human recombinant IL2 (10 ng/ml, Peprotech). After 48 hours incubation under normal tissue culture conditions, supernatants are collected and IFNγ release determined by Sandwich ELISA (Duo-set, R&D System). The IC50 is determined from the dose response curve.

JAK1 = JAK1 (Homo sapiens (Human), UniProt P23458); test: KINOMEscan enzyme binding assay (DiscoveRx), JAK1; details: read-out: Dissociation Constant JAK1
Chain of JAK1 (P23458 whole entry): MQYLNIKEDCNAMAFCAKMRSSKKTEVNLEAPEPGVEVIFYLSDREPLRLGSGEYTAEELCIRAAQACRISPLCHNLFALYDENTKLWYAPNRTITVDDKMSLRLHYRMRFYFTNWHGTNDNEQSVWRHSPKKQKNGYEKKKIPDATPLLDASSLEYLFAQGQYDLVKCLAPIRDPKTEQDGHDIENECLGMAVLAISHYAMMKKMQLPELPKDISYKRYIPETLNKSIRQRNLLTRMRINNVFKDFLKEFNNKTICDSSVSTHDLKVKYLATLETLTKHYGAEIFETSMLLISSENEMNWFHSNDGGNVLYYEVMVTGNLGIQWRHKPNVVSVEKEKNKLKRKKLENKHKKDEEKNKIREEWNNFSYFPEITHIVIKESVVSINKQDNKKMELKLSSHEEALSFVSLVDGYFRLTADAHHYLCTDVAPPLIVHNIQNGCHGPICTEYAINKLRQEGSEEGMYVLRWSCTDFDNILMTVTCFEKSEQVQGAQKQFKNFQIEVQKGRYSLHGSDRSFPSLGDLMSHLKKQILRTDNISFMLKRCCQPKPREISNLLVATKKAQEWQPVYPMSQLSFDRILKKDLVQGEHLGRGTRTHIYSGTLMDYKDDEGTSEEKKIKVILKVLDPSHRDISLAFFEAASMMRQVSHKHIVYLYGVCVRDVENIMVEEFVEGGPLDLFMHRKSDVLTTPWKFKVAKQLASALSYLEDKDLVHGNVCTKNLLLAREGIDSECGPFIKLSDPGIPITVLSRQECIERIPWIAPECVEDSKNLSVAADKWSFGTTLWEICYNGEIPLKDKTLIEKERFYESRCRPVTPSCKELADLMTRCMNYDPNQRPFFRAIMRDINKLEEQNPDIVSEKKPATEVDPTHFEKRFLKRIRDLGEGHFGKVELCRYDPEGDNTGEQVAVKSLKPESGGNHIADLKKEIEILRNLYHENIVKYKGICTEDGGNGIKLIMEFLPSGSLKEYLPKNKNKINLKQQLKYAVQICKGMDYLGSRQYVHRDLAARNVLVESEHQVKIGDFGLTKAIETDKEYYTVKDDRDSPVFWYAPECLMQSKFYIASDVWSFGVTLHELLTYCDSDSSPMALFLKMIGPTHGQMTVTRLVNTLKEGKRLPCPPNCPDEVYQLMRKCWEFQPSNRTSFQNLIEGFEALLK
Experimental: as §1

[2] = Solubility in fasted-state simulated colonic fluid (FaSSCoF); assay type: physicochemical; details: 25 °C, pH 6.5, fassgf or other biorelevant, thermodynamic from solid, pH 6.5, 25° C.
Experimental: The solubilities of compounds of the invention in FaSSCoF at pH 6.5 are determined using a modification of a previously-reported procedure (Vertzoni, M., et al. Pharm. Res. 2010, 27, 2187-2196). In place of the bile salt extract employed in the original procedure (which extract is no longer available), the modified procedure uses a mixture of sodium taurochlorate (0.15 g), glycocholic acid (0.15 g), ursodeoxycholic acid (0.05 g), cholic acid (0.05 g), and glycodeoxycholic acid (0.05 g). These five bile acids are ground together with a mortar and pestle to produce a fine white powder that is incorporated into the FaSSCoF, as outlined below.
FaSSCoF medium: Tris(hydroxymethyl)aminomethane (Tris; 0.275 g) and maleic acid (0.44 g) are dissolved in water (35 mL) to give a solution whose pH is adjusted to 6.5 by treatment with 0.5M NaOH (ca. 12 mL). The solution is then made up to 50 mL with water. A portion of this Tris/maleate buffer solution (ca. 25 mL) is added to a 0.5 L round-bottomed flask, before being treated with 0.00565 g of the bile acid mixture described above. Solutions of phosphatidylcholine (0.0111 g) in DCM (0.15 mL) and palmitic acid (0.0013 g) in DCM (0.15 mL) are added, then the organic solvent is evaporated off under reduced pressure at 40° C. until a clear solution, with no perceptible DCM odour, is achieved. The volume of the evaporated solution is adjusted to 50 mL by addition of the remainder of Tris/maleate buffer, then BSA (0.115 g) is added, before being dissolved by gentle agitation.
Solubility Determination: Test compounds are suspended in the pH 6.5 FaSSCoF medium to give a maximum final concentration of 2-10 mg/mL. The suspensions are equilibrated at 25° C. for 24 h, before being filtered through a glass fibre C filter. The filtrates are then diluted as appropriate for injection and quantification by HPLC with reference to a standard. Different volumes of the standard, diluted and undiluted sample solutions are injected and the solubilities are calculated using the peak areas determined by integration of the peak found at the same retention time as the principal peak in the standard injection.

Jurkat cells = test: Cell cytotoxicity assay (propidium iodide, flow cytometry); assay type: cell-based, human; details: 24 h
Experimental: 1×10^5 Jurkat cells (immortalised human T lymphocytes) are added to the appropriate number of wells of a 96 well plate in 100 μL of media (RPMI supplemented with 10% foetal bovine serum). 1 μL of DMSO control (final concentration 1.0% v/v) or test compound (final concentration 20, 5 or 1 μg/mL) is added to the wells and incubated at 37° C., 5% CO2. After 24 hours, the plate is centrifuged at 1200 rpm for 3 minutes and the supernatant discarded. Cells are then resuspended in 150 μL (final concentration 7.5 μg/mL) of propidium iodide (PI) in PBS and incubated at 37° C., 5% CO2 for 15 minutes. After 15 minutes, cells are analysed by flow cytometry (BD accuri) using the FL3 window. The % viability is calculated as the % of cells that are PI negative in the test wells normalised to the DMSO control.

Chain of JAK3 (P52333 whole entry): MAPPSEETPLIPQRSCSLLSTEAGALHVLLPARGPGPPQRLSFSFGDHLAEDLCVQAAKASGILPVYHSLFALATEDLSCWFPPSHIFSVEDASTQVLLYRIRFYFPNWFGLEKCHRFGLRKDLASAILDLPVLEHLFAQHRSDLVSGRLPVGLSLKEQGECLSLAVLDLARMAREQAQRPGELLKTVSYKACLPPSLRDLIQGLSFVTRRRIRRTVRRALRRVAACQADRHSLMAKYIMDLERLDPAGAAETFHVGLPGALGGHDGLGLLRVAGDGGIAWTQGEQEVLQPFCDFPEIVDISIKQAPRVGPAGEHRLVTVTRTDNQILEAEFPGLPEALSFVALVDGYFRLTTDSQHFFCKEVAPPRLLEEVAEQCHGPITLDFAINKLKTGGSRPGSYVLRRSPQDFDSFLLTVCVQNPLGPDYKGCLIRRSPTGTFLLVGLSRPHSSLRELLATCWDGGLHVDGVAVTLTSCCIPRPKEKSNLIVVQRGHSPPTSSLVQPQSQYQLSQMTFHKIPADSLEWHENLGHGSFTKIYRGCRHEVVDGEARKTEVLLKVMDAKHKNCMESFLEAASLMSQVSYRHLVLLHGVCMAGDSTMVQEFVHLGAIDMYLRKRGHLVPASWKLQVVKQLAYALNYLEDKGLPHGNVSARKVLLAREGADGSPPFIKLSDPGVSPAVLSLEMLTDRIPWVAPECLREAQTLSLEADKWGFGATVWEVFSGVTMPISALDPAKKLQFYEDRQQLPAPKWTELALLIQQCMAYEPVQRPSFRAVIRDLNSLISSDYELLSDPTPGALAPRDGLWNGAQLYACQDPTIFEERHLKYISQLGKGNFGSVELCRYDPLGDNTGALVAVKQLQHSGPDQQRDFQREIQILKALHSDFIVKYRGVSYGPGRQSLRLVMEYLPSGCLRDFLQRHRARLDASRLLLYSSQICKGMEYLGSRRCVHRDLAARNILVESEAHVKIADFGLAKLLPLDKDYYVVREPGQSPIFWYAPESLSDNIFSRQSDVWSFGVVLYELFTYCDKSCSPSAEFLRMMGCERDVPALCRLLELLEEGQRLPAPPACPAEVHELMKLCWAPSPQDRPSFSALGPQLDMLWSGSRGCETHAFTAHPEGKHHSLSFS

Question: With `CCc1cc(O)c(F)cc1-c1ccc2c(-c3nc4c([nH]3)CCN(C(=O)N3CCC(N5CCCCC5)CC3)C4)n[nH]c2c1` [Example 2(a), [1,4′-bipiperidin]-1′-yl(2-(6-(2-ethyl-5-fluoro-4-hydroxyphenyl)-1H-indazol-3-yl)-1,4,6,7-tetrahydro-5H-imidazo[4,5-c]pyridin-5-yl)methanone] as the compound, how does the Kd (JAK3) read?
Answer: 0.046 nM

Question: What about the Kd (TYK2) of the same compound?
Answer: 0.069 nM

Question: What about the Kd (JAK2) of the same compound?
Answer: 0.034 nM

Question: What about the IC50 [1] of the same compound?
Answer: 48.4 nM

Question: What about the Kd (JAK1) of the same compound?
Answer: 0.6 nM

Question: What about the solubility thermodynamic at 24 h ([2]; Run 1, read-out: pH 6.5 FaSSCoF Solubility, Run 1) of the same compound?
Answer: 0.03 mg/mL (≈ 52.5 µM)

Question: What about the solubility thermodynamic at 24 h ([2]; Run 2, read-out: pH 6.5 FaSSCoF Solubility, Run 2) of the same compound?
Answer: 0.03 mg/mL (≈ 52.5 µM)

Question: And the “% viability at 1 μg/mL” value (Jurkat cells)?
Answer: 59%

Question: For `CCc1cc(O)c(F)cc1-c1ccc2c(-c3nc4c([nH]3)CCN(C(=O)Nc3cn(C)c(=O)n(C)c3=O)C4)n[nH]c2c1` [Example 4(d), N-(1,3-dimethyl-2,4-dioxo-1,2,3,4-tetrahydropyrimidin-5-yl)-2-(6-(2-ethyl-5-fluoro-4-hydroxyphenyl)-1H-indazol-3-yl)-6,7-dihydro-1H-imidazo[4,5-c]pyridine-5(4H)-carboxamide], which IC50 [1] is on record?
Answer: 19.2 nM

Question: And the “% viability at 1 μg/mL” value (Jurkat cells)?
Answer: 60%

Question: With `CCc1cc(O)c(F)cc1-c1ccc2c(-c3nc4c([nH]3)CCN(S(=O)(=O)N3CCCC3)C4)n[nH]c2c1` [Example 6(d), 5-ethyl-2-fluoro-4-(3-(5-(pyrrolidin-1-ylsulfonyl)-4,5,6,7-tetrahydro-1H-imidazo[4,5-c]pyridin-2-yl)-1H-indazol-6-yl)phenol] as the compound, how does the IC50 [1] read?
Answer: 8.3 nM

Question: And the “% viability at 1 μg/mL” value (Jurkat cells)?
Answer: 74%

Question: Which IC50 [1] does the source give for `CCc1cc(O)c(F)cc1-c1ccc2c(-c3nc4c([nH]3)CCN(S(=O)(=O)N3CCOCC3)C4)n[nH]c2c1` [Example 6(e), 5-ethyl-2-fluoro-4-(3-(5-(morpholinosulfonyl)-4,5,6,7-tetrahydro-1H-imidazo[4,5-c]pyridin-2-yl)-1H-indazol-6-yl)phenol] here?
Answer: 4.7 nM

Question: And the “% viability at 1 μg/mL” value (Jurkat cells)?
Answer: 64%

Question: Which results are given for `CCc1cc(O)c(F)cc1-c1ccc2c(-c3nc4c([nH]3)CCN(S(=O)(=O)N3CCN(C=O)CC3)C4)n[nH]c2c1` [Example 6(h), 4-((2-(6-(2-ethyl-5-fluoro-4-hydroxyphenyl)-1H-indazol-3-yl)-6,7-dihydro-1H-imidazo[4,5-c]pyridin-5(4H)-yl)sulfonyl)piperazine-1-carbaldehyde]?
Answer: IC50 [1]: 37.4 nM; % viability at 1 μg/mL (Jurkat cells): 93%

Question: Which IC50 [1] does the source give for `CCc1cc(O)c(F)cc1-c1ccc2c(-c3nc4c([nH]3)CCN(S(=O)(=O)N3CCN(C)CC3)C4)n[nH]c2c1` [Example 6(f), 5-ethyl-2-fluoro-4-(3-(5-((4-methylpiperazin-1-yl)sulfonyl)-4,5,6,7-tetrahydro-1H-imidazo[4,5-c]pyridin-2-yl)-1H-indazol-6-yl)phenol] here?
Answer: 9 nM

Question: And the “% viability at 1 μg/mL” value (Jurkat cells)?
Answer: 29%
